Laboratory results as given in ChEMBL document CHEMBL5291721, “A preclinical secondary pharmacology resource illuminates target-adverse drug reaction associations of marketed drugs” (Nat Commun, 2023).

Assays:
[1] = molecular target: T1, Muscarinic acetylcholine receptor M2 (Homo sapiens, UniProt P08172); assay type: functional, cell-based
T1 sequence (P08172 whole entry): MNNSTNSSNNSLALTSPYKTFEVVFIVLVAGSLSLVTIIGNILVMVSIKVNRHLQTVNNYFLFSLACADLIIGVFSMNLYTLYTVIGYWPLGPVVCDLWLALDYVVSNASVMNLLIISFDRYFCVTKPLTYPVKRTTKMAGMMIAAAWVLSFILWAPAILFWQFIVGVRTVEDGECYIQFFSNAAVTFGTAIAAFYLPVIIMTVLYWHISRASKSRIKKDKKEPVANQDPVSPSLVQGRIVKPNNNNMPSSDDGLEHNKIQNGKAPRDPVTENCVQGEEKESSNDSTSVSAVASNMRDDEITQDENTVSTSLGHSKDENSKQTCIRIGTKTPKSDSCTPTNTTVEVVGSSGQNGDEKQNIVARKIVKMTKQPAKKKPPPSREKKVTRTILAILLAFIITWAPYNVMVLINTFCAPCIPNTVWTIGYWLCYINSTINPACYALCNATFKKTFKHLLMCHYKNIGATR

[2] = molecular target: Beta-2 adrenergic receptor (Homo sapiens, UniProt P07550)
Beta-2 adrenergic receptor, sequence (P07550 whole entry): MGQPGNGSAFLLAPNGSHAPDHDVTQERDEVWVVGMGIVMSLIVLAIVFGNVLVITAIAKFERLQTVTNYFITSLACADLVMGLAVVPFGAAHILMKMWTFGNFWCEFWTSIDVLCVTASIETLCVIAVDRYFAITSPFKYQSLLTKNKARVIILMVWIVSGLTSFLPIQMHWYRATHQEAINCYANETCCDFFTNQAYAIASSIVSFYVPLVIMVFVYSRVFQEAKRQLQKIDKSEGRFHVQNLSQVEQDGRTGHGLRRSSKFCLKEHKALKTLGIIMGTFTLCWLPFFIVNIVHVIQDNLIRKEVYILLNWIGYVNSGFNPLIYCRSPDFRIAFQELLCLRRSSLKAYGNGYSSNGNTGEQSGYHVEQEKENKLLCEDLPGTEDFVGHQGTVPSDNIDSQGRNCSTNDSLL

[3] = molecular target: D(1A) dopamine receptor (Homo sapiens, UniProt P21728); assay type: functional, cell-based
D(1A) dopamine receptor, sequence (P21728 whole entry): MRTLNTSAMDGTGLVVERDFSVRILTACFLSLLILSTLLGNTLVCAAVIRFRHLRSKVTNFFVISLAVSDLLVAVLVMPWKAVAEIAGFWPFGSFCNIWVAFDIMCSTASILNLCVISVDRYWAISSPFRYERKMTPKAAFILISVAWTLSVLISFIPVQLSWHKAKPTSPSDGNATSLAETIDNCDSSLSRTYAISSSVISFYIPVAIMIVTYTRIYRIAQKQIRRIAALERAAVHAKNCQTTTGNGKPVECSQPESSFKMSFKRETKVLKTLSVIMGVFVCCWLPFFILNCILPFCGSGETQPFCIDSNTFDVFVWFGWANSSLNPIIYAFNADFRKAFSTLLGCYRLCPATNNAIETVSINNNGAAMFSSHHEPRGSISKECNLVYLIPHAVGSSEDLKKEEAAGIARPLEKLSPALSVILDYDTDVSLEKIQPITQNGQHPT

[4] = molecular target: T2, Prostaglandin G/H synthase 1 (Rattus norvegicus, UniProt Q63921); assay type: functional
T2 sequence (Q63921 whole entry): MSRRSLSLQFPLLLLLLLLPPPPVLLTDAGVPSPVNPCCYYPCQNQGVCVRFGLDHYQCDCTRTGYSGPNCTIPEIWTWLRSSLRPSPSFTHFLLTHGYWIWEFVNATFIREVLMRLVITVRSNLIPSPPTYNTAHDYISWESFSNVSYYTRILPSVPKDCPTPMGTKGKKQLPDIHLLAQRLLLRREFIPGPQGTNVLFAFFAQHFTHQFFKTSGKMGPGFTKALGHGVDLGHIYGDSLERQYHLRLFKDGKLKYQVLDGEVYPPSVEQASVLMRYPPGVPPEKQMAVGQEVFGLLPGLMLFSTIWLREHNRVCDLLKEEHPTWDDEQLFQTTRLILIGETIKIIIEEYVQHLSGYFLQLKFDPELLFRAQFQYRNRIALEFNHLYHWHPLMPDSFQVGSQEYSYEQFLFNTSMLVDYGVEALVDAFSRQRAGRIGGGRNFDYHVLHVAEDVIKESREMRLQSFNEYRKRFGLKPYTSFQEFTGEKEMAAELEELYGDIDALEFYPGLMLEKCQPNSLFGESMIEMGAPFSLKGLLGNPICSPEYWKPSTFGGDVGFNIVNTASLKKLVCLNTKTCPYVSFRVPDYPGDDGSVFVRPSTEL

[5] = molecular target: Adenosine receptor A2a (Homo sapiens, UniProt P29274)
Adenosine receptor A2a, sequence (P29274 whole entry): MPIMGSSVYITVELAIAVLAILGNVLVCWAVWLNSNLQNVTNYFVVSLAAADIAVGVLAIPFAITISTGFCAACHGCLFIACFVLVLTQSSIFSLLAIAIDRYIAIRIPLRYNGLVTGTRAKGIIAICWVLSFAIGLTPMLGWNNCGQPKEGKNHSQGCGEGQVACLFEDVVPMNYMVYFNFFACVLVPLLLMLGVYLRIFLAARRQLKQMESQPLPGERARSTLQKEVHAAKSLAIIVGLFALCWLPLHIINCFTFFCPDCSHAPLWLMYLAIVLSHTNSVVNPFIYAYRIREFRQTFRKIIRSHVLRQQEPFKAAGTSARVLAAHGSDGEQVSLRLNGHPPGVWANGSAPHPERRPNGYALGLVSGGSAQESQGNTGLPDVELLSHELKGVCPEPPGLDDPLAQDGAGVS

[6] = molecular target: T3, Progesterone receptor (Homo sapiens, UniProt P06401); assay type: functional
T3 sequence (P06401 whole entry): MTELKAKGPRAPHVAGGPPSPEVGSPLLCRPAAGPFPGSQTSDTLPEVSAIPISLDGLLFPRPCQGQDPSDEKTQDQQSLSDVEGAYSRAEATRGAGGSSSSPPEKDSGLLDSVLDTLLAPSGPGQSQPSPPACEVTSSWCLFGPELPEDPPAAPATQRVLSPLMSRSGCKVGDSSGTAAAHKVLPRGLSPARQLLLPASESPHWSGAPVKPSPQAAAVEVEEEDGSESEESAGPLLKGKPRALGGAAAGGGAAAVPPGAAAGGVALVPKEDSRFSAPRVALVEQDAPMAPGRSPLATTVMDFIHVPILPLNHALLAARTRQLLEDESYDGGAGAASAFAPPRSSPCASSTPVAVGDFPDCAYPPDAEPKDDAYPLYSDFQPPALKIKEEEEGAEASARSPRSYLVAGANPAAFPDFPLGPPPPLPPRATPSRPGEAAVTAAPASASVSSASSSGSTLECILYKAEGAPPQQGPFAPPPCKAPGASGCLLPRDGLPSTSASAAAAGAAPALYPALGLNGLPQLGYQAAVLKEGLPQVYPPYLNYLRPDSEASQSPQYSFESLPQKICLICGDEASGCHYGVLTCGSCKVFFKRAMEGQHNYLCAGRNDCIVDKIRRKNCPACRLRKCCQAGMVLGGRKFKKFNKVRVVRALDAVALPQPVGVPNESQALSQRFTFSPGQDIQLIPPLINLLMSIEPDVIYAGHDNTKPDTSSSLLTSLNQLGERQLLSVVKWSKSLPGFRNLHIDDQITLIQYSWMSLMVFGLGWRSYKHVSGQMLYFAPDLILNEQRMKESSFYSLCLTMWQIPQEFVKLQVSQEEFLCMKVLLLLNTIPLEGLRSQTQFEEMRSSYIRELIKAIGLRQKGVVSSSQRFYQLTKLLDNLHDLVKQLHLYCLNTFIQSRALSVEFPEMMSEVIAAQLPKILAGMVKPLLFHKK

[7] = molecular target: Voltage-gated inwardly rectifying potassium channel KCNH2 (Homo sapiens, UniProt Q12809); assay type: functional; details: read-out: AC50
Voltage-gated inwardly rectifying potassium channel KCNH2, sequence (Q12809 whole entry): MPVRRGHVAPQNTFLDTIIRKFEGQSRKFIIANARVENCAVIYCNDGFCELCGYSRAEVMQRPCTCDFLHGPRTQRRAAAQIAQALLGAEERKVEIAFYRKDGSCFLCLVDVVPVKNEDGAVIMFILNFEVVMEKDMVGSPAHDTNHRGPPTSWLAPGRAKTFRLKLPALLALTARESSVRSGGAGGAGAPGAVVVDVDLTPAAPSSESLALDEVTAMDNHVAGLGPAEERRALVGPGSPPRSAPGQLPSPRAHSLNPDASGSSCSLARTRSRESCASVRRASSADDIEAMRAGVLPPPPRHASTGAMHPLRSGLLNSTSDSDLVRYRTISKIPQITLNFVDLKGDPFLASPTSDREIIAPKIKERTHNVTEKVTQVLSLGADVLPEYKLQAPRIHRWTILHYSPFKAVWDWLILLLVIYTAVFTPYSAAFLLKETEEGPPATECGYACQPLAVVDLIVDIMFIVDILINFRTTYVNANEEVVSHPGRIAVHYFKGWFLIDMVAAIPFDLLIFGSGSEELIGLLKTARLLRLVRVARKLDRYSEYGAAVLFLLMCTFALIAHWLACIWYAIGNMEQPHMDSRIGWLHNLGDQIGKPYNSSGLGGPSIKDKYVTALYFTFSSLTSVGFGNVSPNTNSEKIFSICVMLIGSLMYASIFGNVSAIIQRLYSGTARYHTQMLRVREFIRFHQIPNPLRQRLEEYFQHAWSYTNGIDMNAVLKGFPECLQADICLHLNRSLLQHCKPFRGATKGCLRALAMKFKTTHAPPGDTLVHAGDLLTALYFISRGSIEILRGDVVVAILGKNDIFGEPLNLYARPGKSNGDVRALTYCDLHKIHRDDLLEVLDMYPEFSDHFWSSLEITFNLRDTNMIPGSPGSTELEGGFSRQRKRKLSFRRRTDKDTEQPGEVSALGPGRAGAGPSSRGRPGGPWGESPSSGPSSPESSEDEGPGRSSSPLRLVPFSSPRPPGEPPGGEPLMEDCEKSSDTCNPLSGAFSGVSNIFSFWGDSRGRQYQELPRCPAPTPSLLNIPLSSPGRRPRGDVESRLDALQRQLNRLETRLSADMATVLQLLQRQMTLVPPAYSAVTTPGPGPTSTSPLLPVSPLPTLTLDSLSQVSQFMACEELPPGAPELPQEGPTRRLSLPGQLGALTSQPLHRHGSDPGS

[8] = molecular target: 5-hydroxytryptamine receptor 2A (Homo sapiens, UniProt P28223); assay type: functional, cell-based
5-hydroxytryptamine receptor 2A, sequence (P28223 whole entry): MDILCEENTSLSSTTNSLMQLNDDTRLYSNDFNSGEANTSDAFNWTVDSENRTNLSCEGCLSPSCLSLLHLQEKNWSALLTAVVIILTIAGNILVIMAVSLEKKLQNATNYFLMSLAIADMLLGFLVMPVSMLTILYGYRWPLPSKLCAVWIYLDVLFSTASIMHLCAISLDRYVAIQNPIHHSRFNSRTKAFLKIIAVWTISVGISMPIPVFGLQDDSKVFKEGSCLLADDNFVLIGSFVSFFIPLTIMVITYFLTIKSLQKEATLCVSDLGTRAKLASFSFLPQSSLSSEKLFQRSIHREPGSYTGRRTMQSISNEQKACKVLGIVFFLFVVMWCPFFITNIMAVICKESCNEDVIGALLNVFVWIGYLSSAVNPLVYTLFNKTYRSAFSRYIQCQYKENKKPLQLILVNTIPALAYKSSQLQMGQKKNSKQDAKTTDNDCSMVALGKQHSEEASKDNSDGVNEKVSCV

[9] = molecular target: T4, Amine oxidase [flavin-containing] A (Homo sapiens, UniProt P21397); assay type: functional
T4 sequence (P21397 whole entry): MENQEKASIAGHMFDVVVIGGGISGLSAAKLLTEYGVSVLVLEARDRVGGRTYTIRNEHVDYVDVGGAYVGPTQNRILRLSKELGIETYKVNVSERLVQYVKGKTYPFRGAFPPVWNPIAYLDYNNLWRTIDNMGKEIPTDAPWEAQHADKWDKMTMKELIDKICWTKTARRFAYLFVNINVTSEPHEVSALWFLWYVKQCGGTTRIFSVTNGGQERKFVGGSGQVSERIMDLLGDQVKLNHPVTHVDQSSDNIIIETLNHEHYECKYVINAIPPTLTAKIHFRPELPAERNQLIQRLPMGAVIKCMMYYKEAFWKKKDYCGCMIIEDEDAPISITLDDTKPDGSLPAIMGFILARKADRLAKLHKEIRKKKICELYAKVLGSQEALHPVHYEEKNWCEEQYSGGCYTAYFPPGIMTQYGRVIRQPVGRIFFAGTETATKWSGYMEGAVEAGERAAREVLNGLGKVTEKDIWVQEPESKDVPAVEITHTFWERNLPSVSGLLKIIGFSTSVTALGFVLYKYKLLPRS
Also: assay procedure not described here.

Row | SMILES | AC50 [1] | AC50 [2] | AC50 [3] | AC50 [4] | AC50 [5] | AC50 [6] | AC50 [7] | AC50 [8] | AC50 [9]
1 | CCCCCN(C)CCC(O)(P(=O)(O)O)P(=O)(O)O [IBANDRONIC ACID] | > 30 µM | > 30 µM | > 30 µM | > 30 µM | > 30 µM | > 30 µM | > 30 µM | > 30 µM | > 30 µM
2 | CC(C)[N+](C)(CCC(C(N)=O)(c1ccccc1)c1ccccc1)C(C)C [ISOPROPAMIDE] | 0.01 µM | > 10 µM | > 10 µM | > 10 µM | > 10 µM | > 10 µM | 3.3 µM | > 10 µM | > 10 µM
3 | CCCCOc1cc(C(=O)NCCN(CC)CC)c2ccccc2n1 [DIBUCAINE] | > 10 µM | > 10 µM | > 10 µM | > 10 µM | > 30 µM | > 10 µM | 1.42 µM | > 10 µM | > 10 µM
4 | CN1CCC2=C(C1)C(c1ccccc1)c1ccccc12 (stereo not given) [PHENINDAMINE] | > 10 µM | > 10 µM | > 10 µM | 0.771 µM | > 10 µM | > 30 µM | > 30 µM | > 10 µM | > 10 µM
5 | Cc1nc2ccc(CN(C)c3ccc(C(=O)N[C@@H](CCC(=O)O)C(=O)O)s3)cc2c(=O)[nH]1 [RALTITREXED] | > 30 µM | > 30 µM | > 30 µM | > 30 µM | > 30 µM | > 30 µM | > 30 µM | > 30 µM | > 30 µM
